Results taken from ChEMBL document CHEMBL1131315, “Synthesis and anticonvulsant activity of 2(3H)-benzoxazolone and 2(3H)-benzothiazolone derivatives” (J Med Chem, 1998).
Calls of active or inactive are those of the source. The calls are words filed in the database; no cut-off is given here.

Columns and labels:
Rattus norvegicus [1] = experiment: The compound was tested peroral dose of 25 mg/kg for 1 hour for rotarod toxicity; 0/4; assay type: functional; conditions: route oral
Mus musculus [2] = experiment: The compound was tested for anticonvulsant activity in subcutaneous pentylenetetrazole seizure test (sc Met) for 4 hr in mice; active at 300 mg/kg; assay type: functional, organism-based; design: dose 300 mg/kg
Mus musculus [3] = experiment: Time of peak effect in mice following i.p. administration.; assay type: functional
Rattus norvegicus [4] = experiment: The compound was tested per os dose of 25 mg/kg for 4 hours for maximal electroshock test on rats; MES= 2/4; assay type: functional
Rattus norvegicus [5] = experiment: The compound was tested per os dose of 25 mg/kg for 0.5 hours for maximal electroshock test on rats; MES= 3/4; assay type: functional
Rattus norvegicus [6] = experiment: The compound was tested per os dose of 25 mg/kg for 2 hours for maximal electroshock test on rats; MES= 2/4; assay type: functional
Rattus norvegicus [7] = experiment: The compound was tested peroral dose of 25 mg/kg for 2 hours for rotarod toxicity; 0/4; assay type: functional; conditions: route oral
Rattus norvegicus [8] = experiment: The compound was tested for the effective oral dose to inhibit 50% of the anticonvulsant in rats.(Value in parenthesis indicate 95% confidence limits).; assay type: functional
Mus musculus [9] = experiment: The compound was tested to inhibit 50% of induced maximal electroshock seizure in mice on ip administration; assay type: functional
[10] = The compound was tested for neurologic toxicity (rotarod) test for 4 hours in mice; active at 300 mg/kg; assay type: organism-based; design: dose 300 mg/kg; conditions: mouse, in vivo
Rattus norvegicus [11] = experiment: The compound was tested peroral dose of 25 mg/kg for 0.25 hours for rotarod toxicity; 0/4; assay type: functional; conditions: route oral
Rattus norvegicus [12] = experiment: The compound was tested per os dose of 30 mg/kg for 0.25 hours for maximal electroshock test on rats; MES= 0/4; assay type: functional
Mus musculus [13] = experiment: Anticonvulsant activity in Maximal electroshock seizure test at 100 mg/kg i.p. in mice.; assay type: functional, organism-based; design: dose 100 mg/kg
[14] = The compound was tested for neurologic toxicity (rotarod) test for 30 min in mice; active at 100 mg/kg; assay type: organism-based; design: dose 100 mg/kg; conditions: mouse, in vivo, 0.5 h
Rattus norvegicus [15] = experiment: (§1) The compound was tested for the toxic dose on oral administration.; assay type: functional
Mus musculus [16] = experiment: Inhibition of s.c. pentylenetetrazole induced seizure in mice following i.p. administration.; assay type: functional
Rattus norvegicus [17] = experiment: The compound was tested peroral dose of 25 mg/kg for 0.5 hours for rotarod toxicity; 0/4; assay type: functional; conditions: route oral
[18] = The compound was tested for time of peak effect (TPE) in hours for its toxicity in mice on ip administration.; assay type: organism-based; conditions: mouse, in vivo
Rattus norvegicus [19] = experiment: The compound was tested peroral dose of 25 mg/kg for 4 hours for rotarod toxicity; 0/4; assay type: functional; conditions: route oral
[20] = (§2) Protective index value is the ratio between ED50 and TD50; assay type: functional
Rattus norvegicus [21] = experiment: The compound was tested per os dose of 25 mg/kg for 1 hour for maximal electroshock test on rats; MES= 3/4; assay type: functional
[22] = The compound was determined for the dose (mg/kg) by rotarod test at the time of peak neurotoxic effect in mice on ip administration.; assay type: ADME, organism-based; conditions: mouse, in vivo
Mus musculus [23] = experiment: The compound was tested for anticonvulsant activity in Maximal electroshock seizure test (MES) for 4 hr in mice(ip); active at 100 mg/kg; assay type: functional, organism-based; design: dose 100 mg/kg
Mus musculus [24] = experiment: The compound was tested for anticonvulsant activity in subcutaneous pentylenetetrazole seizure test (sc Met) for 30 min in mice; active at 100 mg/kg; assay type: functional, organism-based; design: dose 100 mg/kg
Mus musculus [25] = experiment: The compound was tested for anticonvulsant activity in Maximal electroshock seizure test (MES) for 4 hr in mice(ip); active at 300 mg/kg; assay type: functional, organism-based; design: dose 300 mg/kg
Mus musculus [26] = experiment: The compound was tested for anticonvulsant activity in Maximal electroshock seizure test for 30 min in mice(ip); active at 30 mg/kg; assay type: functional, organism-based; design: dose 30 mg/kg
Rattus norvegicus [27] = experiment: The compound was tested peroral dose of 40 mg/kg for 2 hours for maximal electroshock test on rats; MES= 1/4; assay type: functional; conditions: route oral
[28] = as §1; assay type: ADME; conditions: rat
Rattus norvegicus [29] = experiment: The compound was tested peroral dose of 40 mg/kg for 0.5 hours for rotarod toxicity; 0/4; assay type: functional; conditions: route oral
Mus musculus [30] = experiment: Anticonvulsant activity in subcutaneous pentylenetetrazole seizure test for 30 min in mice; No activity/toxicity at 300 mg/kg.; assay type: functional, organism-based; design: dose 300 mg/kg
Mus musculus [31] = experiment: The anticonvulsant activity in subcutaneous pentylenetetrazole seizure test (sc Met) for 4 hr in mice; no activity or no toxicity at 300 mg/kg; assay type: functional, organism-based; design: dose 300 mg/kg
Rattus norvegicus [32] = experiment: The compound was tested peroral dose of 40 mg/kg for 0.25 hours for rotarod toxicity; 0/4; assay type: functional; conditions: route oral
Rattus norvegicus [33] = experiment: The compound was tested peroral dose of 40 mg/kg for 1 hour for rotarod toxicity; 0/4; assay type: functional; conditions: route oral
Rattus norvegicus [34] = experiment: The compound was tested for the effective oral dose to inhibit 50% of the anticonvulsant in rats; assay type: functional
Rattus norvegicus [35] = experiment: The compound was tested peroral dose of 40 mg/kg for 0.25 hours for maximal electroshock test on rats; MES= 3/4; assay type: functional; conditions: route oral
[36] = molecular target: Sigma non-opioid intracellular receptor 1 (Homo sapiens) (UniProt Q99720); experiment: Ratio between the Ki(nM)values of sigma-2 and sigma-1; assay type: functional
Sigma non-opioid intracellular receptor 1 (Homo sapiens), sequence (Q99720 whole entry): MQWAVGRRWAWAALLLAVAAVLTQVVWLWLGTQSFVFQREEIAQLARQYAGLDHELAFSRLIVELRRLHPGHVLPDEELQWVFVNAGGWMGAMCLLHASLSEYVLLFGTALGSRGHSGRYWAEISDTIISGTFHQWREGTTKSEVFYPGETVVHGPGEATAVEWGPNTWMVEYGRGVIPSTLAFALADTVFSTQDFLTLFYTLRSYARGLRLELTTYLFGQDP

Rattus norvegicus [37] = experiment: The compound was tested peroral dose of 40 mg/kg for 0.5 hours for maximal electroshock test on rats; MES= 3/4; assay type: functional; conditions: route oral
[38] = The compound was tested for neurologic toxicity (rotarod) test for 4 hours in mice; no activity or no toxicity at 300 mg/kg; assay type: organism-based; design: dose 300 mg/kg; conditions: mouse, in vivo
Rattus norvegicus [39] = experiment: The compound was tested peroral dose of 40 mg/kg for 4 hours for rotarod toxicity; 0/4; assay type: functional; conditions: route oral
[40] = The compound was tested for neurologic toxicity (rotarod) test for 30 min in mice; active at 300 mg/kg; assay type: organism-based; design: dose 300 mg/kg; conditions: mouse, in vivo, 0.5 h
Rattus norvegicus [41] = experiment: The compound was tested peroral dose of 40 mg/kg for 1 hour for maximal electroshock test on rats; MES= 1/4; assay type: functional; conditions: route oral
Rattus norvegicus [42] = experiment: The compound was tested peroral dose of 40 mg/kg for 4 hours for maximal electroshock test on rats; MES= 0/4; assay type: functional; conditions: route oral
Rattus norvegicus [43] = experiment: The compound was tested peroral dose of 40 mg/kg for 2 hours for rotarod toxicity; 0/4; assay type: functional; conditions: route oral
Mus musculus [44] = experiment: The compound was tested to inhibit 50% of induced maximal electroshock seizure in mice on ip administration.; assay type: functional
Rattus norvegicus [45] = organism: Rattus norvegicus; experiment: as §2; assay type: functional
Sigma 2 receptor = experiment: Affinity on sigma 2 receptor using [3H]- DTG as radioligand
Rattus norvegicus [46] = experiment: The compound was tested for the toxic dose on oral administration; assay type: functional
Mus musculus [47] = experiment: The compound was tested to inhibit 50% of induced subcutaneous pentylenetetrazole seizure in mice on ip administration; assay type: functional

Oc1nc2ccc(Cc3ccccc3)cc2o1
No. of animals exhibiting toxicity / Number of animals tested (Rattus norvegicus [1]): 0 | scMet (Mus musculus [2]): active at 100 mg/kg | Activity (Mus musculus [3]): 0.5 h | Protected/Tested (Rattus norvegicus [4]): 2 | Protected/Tested (Rattus norvegicus [5]): 3 | Protected/Tested (Rattus norvegicus [6]): 2 | No. of animals exhibiting toxicity / Number of animals tested (Rattus norvegicus [7]): 0 | ED50 (Rattus norvegicus [8]): 23.1 mg/kg | ED50 (Mus musculus [9]): 68.3 mg/kg | Rotarod toxicity [10]: active at 100 mg/kg | No. of animals exhibiting toxicity / Number of animals tested (Rattus norvegicus [11]): 0 | Protected/Tested (Rattus norvegicus [12]): 0 | MES (Mus musculus [13]): active at 100 mg/kg | Rotarod toxicity [14]: active at 100 mg/kg | TD50 (Rattus norvegicus [15]): > 500 mg/kg | ED50 (Mus musculus [16]): 77.2 mg/kg | No. of animals exhibiting toxicity / Number of animals tested (Rattus norvegicus [17]): 0 | Toxicity [18]: 1 h | No. of animals exhibiting toxicity / Number of animals tested (Rattus norvegicus [19]): 0 | PI [20]: 21.7 | Protected/Tested (Rattus norvegicus [21]): 3 | TD50 [22]: 164 mg/kg | MES (Mus musculus [23]): active at 100 mg/kg | scMet (Mus musculus [24]): active at 100 mg/kg

CCC(=O)c1ccc2c(c1)sc(=O)n2CCN1CCCCC1
Activity (Mus musculus [3]): 0.25 h | MES (Mus musculus [25]): active at 30 mg/kg | MES (Mus musculus [26]): active at 30 mg/kg | Protected/Tested (Rattus norvegicus [27]): 1 | TD50 [28]: > 110 mg/kg | No. of animals exhibiting toxicity / Number of animals tested (Rattus norvegicus [29]): 0 | scMet (Mus musculus [30]): No activity or no toxicity at 300 mg/kg | scMet (Mus musculus [31]): No activity or no toxicity at 300 mg/kg | No. of animals exhibiting toxicity / Number of animals tested (Rattus norvegicus [32]): 0 | No. of animals exhibiting toxicity / Number of animals tested (Rattus norvegicus [33]): 0 | ED50 (Rattus norvegicus [34]): 27.2 mg/kg | Protected/Tested (Rattus norvegicus [35]): 3 | Ratio [36]: 10 | Protected/Tested (Rattus norvegicus [37]): 3 | ED50 (Mus musculus [16]): > 55 mg/kg | Rotarod toxicity [38]: active at 300 mg/kg | Toxicity [18]: 0.25 h | No. of animals exhibiting toxicity / Number of animals tested (Rattus norvegicus [39]): 0 | Rotarod toxicity [40]: active at 300 mg/kg | TD50 [22]: 46.3 mg/kg | Protected/Tested (Rattus norvegicus [41]): 1 | Protected/Tested (Rattus norvegicus [42]): 0 | No. of animals exhibiting toxicity / Number of animals tested (Rattus norvegicus [43]): 0 | ED50 (Mus musculus [44]): 8.7 mg/kg | PI (Rattus norvegicus [45]): 4 | Ki (Sigma 2 receptor): 481 nM

O=C1NC(=O)C(c2ccccc2)(c2ccccc2)N1 [PHENYTOIN]
TD50 (Rattus norvegicus [46]): > 3000 mg/kg | ED50 (Mus musculus [47]): > 300 mg/kg
